Test results as given in patent publication US6509348B1, “Combination of an ADP-receptor blocking antiplatelet drug and a thromboxane A2 receptor antagonist and a method for inhibiting thrombus formation employing such combination” (Bristol-Myers Squibb Company, priority 1998, dated 2003).
“Also recorded” adds a separate entry of the source. Like-named read-outs stand apart in the source and are kept apart here.

Tests used:
[1] = system: stasis-induced vena cava thrombosis; experiment: Stasis-induced (uncomplicated) vena cava thrombosis; assay type: in vivo, rat
whole blood coagulation = conditions: clopidogrel orally once daily for 3 days
Protocol: (§1) Ex Vivo Platelet Function and Coagulation Testing. Male Sprague Dawley rats (350-450 g) were anesthetized with sodium pentobarbital (50 mg/kg i.p.) The vena cava was isolated by a midline abdominal incision and 5 to 8 ml of blood was withdrawn into a 1/10th volume of 3.8% Na citrate. A portion of each blood sample was centrifuged for 3 sec in a Microcentrifuge E (Beckman, Palo Alto, Calif., USA) to prepare platelet rich plasma (PRP) and for 3 min to prepare platelet poor plasma (PPP). The PRP was adjusted to a count of ˜450×10^3 platelets per […] by adding PPP.
(§2) Drug treatments. There were 3 separate studies. In the first study rats were dosed once daily for 3 days with an oral gavage of either saline (n=6) or clopidogrel 3 (n=5), 10 (n=5), 20 (n=4) mg/kg). One hour after the last dose, rats were anethetized for the thrombosis protocol or blood was obtained for ex vivo testing of platelet function and whole blood coagulation. In the second study a continuous i.v. infusion of either saline or ifetroban (150 μg/kg/min) was administered starting 15 min before FeCl2-induced injury of the vena cava. In the third study, rats were treated with saline or clopidogrel (2 mg/kg per day for 3 days) and administered either saline or ifetroban (150 μg/kg/min) starting 15 min before FeCl2 application.

[2] = system: vessel injury-induced venous thrombosis; experiment: FeCl2 vessel injury-induced vena cava thrombosis in rats; assay type: in vivo, rat
Protocol: Thrombosis Procedure. Male Sprague Dawley rats (350-450 g) were anesthetized with sodium pentobarbital (50 mg/kg i.p.). A jugular vein was cannulated for drug infusion or anesthetic supplementation, and the trachea was intubated to ensure airway patency. The vena cava was isolated by a midline abdominal incision and cleared of connective tissue. A fiberoptic probe (model P-433-10, 0.8 mm tip diameter) was placed on the dorsal surface of the vena cava distal to the renal veins and attached to a laser doppler blood perfusion monitor (model BPM 430-2, Vasamedics, St. Paul, Minn.). When baseline flow had stabilized, a 2 mm×5 mm strip of filter paper was saturated in 15% FeCl2 and placed on the vena cava downstream from the flow probe for 1 min. The vena cava was dissected free 60 min after filter paper application and opened lengthwise. The thrombus was removed to determine wet and dry thrombus weights on a Sartorius R-160P balance (Brinkmann Instruments Inc., Westbury, N.Y.). Blood flow was monitored on an R-611 physiological recorder (Sensor Medics, Anaheim, Calif.). Total blood flow was calculated by planimetry and normalized as percent of baseline flow (0 min=100%) over 60 min.
as §2

[3] = system: carotid artery thrombosis; conditions: clopidogrel 10 mg/kg
[4] = system: ADP-induced platelet aggregation; experiment: animal or person
Protocol: as §1
Platelet aggregation responses of PRP to ADP (1,3 and 10 μM; Chrono-Log Corp., Havertown, Pa., USA) were determined using the photometric technique described for a model 540 aggregometer (Chrono-Log Corp.).
as §2

[5] = system: vessel injury-induced venous thrombosis; conditions: cited from earlier work; for activity in vessel injury-induced venous thrombosis model: aspirin, previous experiments
[6] = system: stasis-induced vena cava thrombosis; conditions: cited from earlier work
[7] = target: T1, rat platelet thromboxane A2 receptors (Rattus norvegicus, UniProt P34978); conditions: dose used (150 μg/kg/min); Schumacher et al. 1993; cited from earlier work
T1 construct: rat platelet thromboxane A2 receptors; host or cells: rat platelets (endogenous)
T1 sequence (P34978 1-341): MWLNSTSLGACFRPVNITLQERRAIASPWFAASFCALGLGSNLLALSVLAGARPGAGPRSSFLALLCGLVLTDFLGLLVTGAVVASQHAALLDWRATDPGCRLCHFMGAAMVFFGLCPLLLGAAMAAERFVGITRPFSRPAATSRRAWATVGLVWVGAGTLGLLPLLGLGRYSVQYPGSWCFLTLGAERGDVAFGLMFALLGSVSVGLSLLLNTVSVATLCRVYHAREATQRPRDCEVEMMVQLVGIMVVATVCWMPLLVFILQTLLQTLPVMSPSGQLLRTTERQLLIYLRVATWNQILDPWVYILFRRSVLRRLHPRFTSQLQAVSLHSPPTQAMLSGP

## COC(=O)[C@H](c1ccccc1Cl)N1CCc2sccc2C1 [clopidogrel, methyl (4)-(S)-α-(o-chlorophenyl)-6,7-dihydrothieno[3,2-c]pyridine-5-acetate]
[1]; clopidogrel 10 mg/kg
  antithrombotic activity: good activity
[1]; dose-dependent comparison of three rat models
  antithrombotic efficacy compared across the thrombosis models: least effective
Whole blood coagulation
  ex vivo whole blood coagulation tests: unaffected
[2]; clopidogrel 2 mg/kg per day for 3 days
  effect on thrombus formation: not sufficient to inhibit thrombus formation; also recorded: no effect
[2]; clopidogrel 3 mg/kg orally once daily for 3 days
  decrease in thrombus weight: 46%
[2]; clopidogrel 10 mg/kg
  antithrombotic activity: good activity
[2]; clopidogrel 10 mg/kg orally once daily for 3 days
  decrease in thrombus weight: 72%
[2]; clopidogrel 20 mg/kg orally once daily for 3 days
  decrease in thrombus weight: 84%
[3]
  antithrombotic activity: good activity
[4]; Rattus norvegicus, Platelet, 72 h, read-out: inhibition of ADP-induced aggregation
  inhibition at 20 mg/kg: 86%
[4]; Rattus norvegicus, Platelet, 72 h, read-out: inhibition of ex vivo platelet aggregation
  inhibition at 10 mg/kg: 50%
[4]; clopidogrel 20 mg/kg daily for 3 days
  platelet shape change response to ADP: unaffected

## CC(=O)CC(c1ccccc1)c1c(O)c2ccccc2oc1=O (stereo not drawn) [warfarin]
[5]; at higher dose needed for comparable inhibition of vessel injury-induced venous thrombosis
  INR: 9.5
[6]; at dose giving ≧75% inhibition of stasis-induced thrombosis
  PT ratio (INR): 2.2

## CC(=O)Oc1ccccc1C(=O)O [aspirin]
[5]
  activity in vessel injury-induced venous thrombosis model: failure; also recorded: failed to inhibit thrombosis
[5]; listed as Aspirin
  activity in vessel injury-induced venous thrombosis model: inactive
[6]; aspirin
  activity in uncomplicated venous thrombosis model: inactive

## CCCCCNC(=O)c1coc(C2C3CCC(O3)C2Cc2ccccc2CCC(=O)O)n1 (stereo not drawn) [ifetroban, [1S-(1α,2α,3α,4α)]-2-[[3-[4-[(pentylamino)carbonyl]-2-oxazolyl]-7-oxabicyclo[2.2.1]hept-2-yl]methyl]benzenepropanoic acid]
[1]; ifetroban alone
  efficacy in uncomplicated venous thrombosis model: effective; also recorded: intermediate efficacy
[2]; ifetroban alone, 150 μg/kg/min i.v. infusion from 15 min before FeCl2
  effect on thrombus formation: inactive; also recorded: no significant effect; also recorded: failure; also recorded: not effective
[2]; ifetroban alone, 150 μg/kg/min i.v. infusion from 15 min before FeCl2, listed as Ifetroban
  effect on thrombus formation: failed to inhibit thrombosis
[7]
  block of rat platelet thromboxane A2 receptors: ≥ 99%
